From US8883180B2 (priority 2007, dated 2014) come the findings set out here.

Molecules are shown by their SMILES. Read-outs that look alike come from different tables or passages of the source.

Common to all, as to assay type: in vivo
Assay [1] deals with larvae of the mustard beetle (Phaedon cochleariae). In words: Phaedon cochleariae - test (sprayed cabbage leaves). As to conditions: for Efficacy in % after 4d: Table C-2, mortality; for Efficacy in % after 3d: Table C-1, mortality; for Efficacy in % after 6d: Table C-3, mortality. The protocol:
(§1) Solvent: 7 parts by weight of dimethylformamide
(§2) Emulsifier: 2 parts by weight of alkylaryl polyglycolether
(§3) To produce a suitable preparation of active compound, 1 part by weight of active compound is mixed with the stated amount of solvent and emulsifier, and the concentrate is diluted with emulsifier-containing water to the desired concentration.
Cabbage leaves (Brassica oleracea) are treated by being sprayed with the preparation of the active compound at the desired concentration and are infested with larvae of the mustard beetle (Phaedon cochleariae) as long as the leaves are still moist.
After the specified period of time, the mortality in % is determined. 100% means that all the beetle larvae have been killed; 0% means that none of the beetle larvae have been killed.

Assay [2] deals with larvae of the fall army worm (Spodoptera frugiperda). The experiment in a line: Spodoptera frugiperda - test (sprayed cabbage leaves). As to conditions: mortality. The method, then:
as §1, §2, §3
Cabbage leaves (Brassica oleracea) are treated by being sprayed into the preparation of the active compound of the desired concentration and are infested with larvae of the fall army worm (Spodoptera frugiperda) as long as the leaves are still moist.
After the specified period of time, the mortality in % is determined. 100% means that all the caterpillars have been killed; 0% means that none of the caterpillars have been killed.

In assay [3] the test system is larvae of the Brown plant hopper (Nilaparvata lugens). The experiment in a line: Nilaparvata lugens - test (sprayed rice plants). As to conditions: mortality. The method, then:
as §1, §2, §3
Rice plants (Oryza sativa) are treated by being sprayed with the preparation of the active compound at the desired concentration and are infested with larvae of the Brown plant hopper (Nilaparvata lugens) as long as the leaves are still moist.
After the specified period of time, the mortality in % is determined. 100% means that all the hopper larvae have been killed; 0% means that none of the hopper larvae have been killed.

In assay [4] the test system is rice blast (Pyricularia oryzae). As to conditions: 20 ppm, inoculated 1 day after spraying, evaluated 5 days after inoculation.
Assay [5] has as its system Blumeria graminis f. sp. hordei. In words: Blumeria test (barley)/SAR 5d. As to conditions: 1000 ppm, evaluated 7 days after inoculation.
Assay [6] has as its system rice blast (Pyricularia oryzae). As to conditions: 100 ppm, inoculated 5 days after spraying, evaluated 7 days after inoculation.

For `N#C/N=C1\SCCN1Cc1ccc(Cl)nc1` [Thiacloprid, thiacloprid], the “Efficacy in % after 4d” value in assay [1] (4 ppm) worked out at 45%.
On to `C/C(=N\C#N)N(C)Cc1ccc(Cl)nc1` [Acetamiprid, acetamiprid], for which the “Efficacy in % after 6d” value in assay [2] (0.16 ppm) is recorded as 15%.
As for `CNC(=O)c1cc(Cl)cc(C)c1NC(=O)c1cc(Br)nn1-c1ncccc1Cl` [Chlorantraniliprole, chlorantraniliprole], the “Efficacy in % after 6d” value in assay [2] (0.032 ppm) and in assay [1] (0.8 ppm) was 15% in each case. The “Efficacy in % after 3d” value in assay [3] (4 ppm) and in assay [1] (0.16 ppm) was 0% in each case. The Efficacy in % in assay [4] is given as 0%; in assay [5] (Table A-1, 1st leaf), 11%; in assay [5] (Table A-2, printed 1st leaf), 0%; in assay [6] it was 0%. Besides, the “Efficacy in % after 4d” value is given as 45% in assay [1] (0.8 ppm) and 70% in assay [1] (4 ppm).
As for `O=[N+]([O-])NC1=NCCN1Cc1ccc(Cl)nc1` [Imidacloprid, imidacloprid], the Efficacy in % in assay [4] and in assay [6] was 0% in each case. In addition, the “Efficacy in % after 3d” value in assay [1] (4 ppm) is recorded as 0%.
On to `CN/C(=N\[N+](=O)[O-])NCc1cnc(Cl)s1` [Clothianidin, clothianidin], for which the “Efficacy in % after 3d” value in assay [3] (4 ppm) amounted to 90%. Moreover, in assay [1] (20 ppm), the “Efficacy in % after 4d” value stood at 70%. Besides, the “Efficacy in % after 6d” value in assay [1] (4 ppm) was 90%.
In the case of `N#Cc1ccccc1NC(=O)c1snc(Cl)c1Cl` [Isotianil, 3,4-dichloro-N-(2-cyanophenyl)-5-isothiazolecarboxamide], the “Efficacy in % after 6d” value in assay [2] (200 ppm) and in assay [1] (200 ppm) was 0% each time. Also, the “Efficacy in % after 3d” value in assay [3] (200 ppm) and in assay [1] (200 ppm) was 0% each time. In addition, the Efficacy in % turned out to be 35% in assay [4]; 44% in assay [5] (Table A-1, 1st leaf); 44% in assay [5] (Table A-2, printed 1st leaf); 43% in assay [6]. Moreover, in assay [1] (200 ppm), the “Efficacy in % after 4d” value worked out at 15%.
